Literature values, collected in paper PMC9475419 (RSC Advances, 2022).
“Also recorded” adds a separate entry of the source.

Legend:
[1] = 15 Pep1 per AuNP (3.6 nm); cited from earlier work
[2] = cited from earlier work

Sequence: CGSTIYASYYESGHGC [Pep1]
- suppression of non-specific binding of AuNPs by Pep1 [1]: enough to suppress the non-specific binding surface of AuNPs; also recorded: could sufficiently suppress the non-specific binding of AuNPs
- structure and function of free peptide [2]: unstructured and non-functional
